This note sets out measurements from US20150352034A1, “Personal Care Products Containing Microalgae or Extracts Thereof” (Solazyme, Inc., priority 2014, published 2015).

Data set [1] has as its system MatTek's EpiDerm tissue. Description: UVB protection assay, MTT tissue viability. Type of data set: cell-based, human. The following applies: 300 mJ/cm^2 UVB, then 1 mM, 100 μl topically for 24 hours; in % (unit assumed). The method, then:
MatTek's EpiDerm tissue, a skin model that consists of normal human-derived epidermal keratinocytes cultured to form a multilayered, highly differentiated model of the human epidermis, was used to measure changes in tissue viability. The tissues were exposed to 300 mJ/cm^2 of UVB radiation and subsequently topically treated with the aforementioned test materials over a period of 24 hours. Materials were tested for their abilities to either maintain tissue viability after UVB exposure or aid in the recovery of tissue damaged by UVB radiation. […] The MTT analysis involved a colorimetric analysis of tissue metabolic activity, the increased presence of color indicating the presence of metabolically-active living cells. Reduction of MTT by mitochondria in viable cells results in purple formazin crystals; the intensity of the purple color is directly proportional to metabolically active cells in the tissue. The tissues were stored at 4° C. until used. […] One gram of WAF was mixed with 10 ml of water for one hour at room temperature. The WAF-water mixture was then centrifuged for 5 minutes to pellet any undissolved material and the supernatant was used for topical application. The Sample B, Sample F, and Sample A were applied topically without any further processing. […] Reduced MTT was subsequently extracted from the tissues and colorimetrically analyzed at 540 nm to determine tissue viability.

For data set [2], the system named is thymine dimers in genomic DNA of MatTek's EpiDerm tissue. Description: Thymine dimer formation after UVB. It counts as cell-based, human. The following applies: 300 mJ/cm^2 UVB, then 1 mM, 100 μl topically for 24 hours. The method, then: This method was designed to evaluate changes in tissue DNA thymine dimer content after exposure to UVB. The testing system used for this assay was MatTek's EpiDerm tissue, a skin model that consists of normal human-derived epidermal keratinocytes cultured to form a multilayered, highly differentiated model of the human epidermis. For this study, the tissues were exposed to UVB (300 mJ/cm^2) and then treated topically for 24 hours with the test material. Following the treatment the DNA was extracted from the EpiDerm tissues and assayed for thymine dimer content. For the assay, samples of the DNA were immobilized on a solid membrane support and incubated with an antibody that recognizes thymine dimers in double stranded DNA. The primary antibody was then detected using a secondary antibody conjugated to a fluorescent dye. The membrane was then scanned using an excitation laser and emission filter combination appropriate for the fluorescent dye. With this method, the fluorescence intensity of each sample is proportional to the amount of the thymine dimers present in the sample. […] UVB lamp intensity was measured using a UVX radiometer with a probe specific for UVB (detects 260-360 nm, max absorbance at 310 nm, calibrated at 310 nm) to determine exposure times required for the appropriate UVB dose. […] Extracted DNA was quantified via a fluorometric assay. […]

The subject of data set [3] is procollagen synthesis in fibroblasts. Description: Type I Collagen Assay (type I C-peptide ELISA, fibroblast culture medium). It counts as cell-based. As to conditions: 48 h. Here is the method: (§1) The type I C-peptide fragment was measured because procollagen, a precursor to mature collagen, is cleaved in collagen and type I C-peptide fragments in a 1:1 ratio. By measuring the amount of type I C-peptide fragments in the tissue medium, collagen production was measured. Elastin was measured directly from the cell culture medium. Hyaluronic acid was measured in the tissue culture media. All measurements were performed using an ELISA based method.
(§2) Powder materials were prepared by combining 1 gram of the powder material with either 10 ml ultrapure water or 10 ml of DMSO. The mixtures were incubated for one hour at room temperature on a rocking platform to saturate the extraction medium with the test material. The mixture was then centrifuged to separate the saturated extract solution from the undissolved solid materials. The oil based materials were prepared as a stock solution in DMSO and then diluted into the culture media such that the final concentration of DMSO was 1%. A 1% DMSO control was included to account for any effect the solvent might have when evaluating the effect of the oils or DMSO prepared powders. […]
A series of type I C-peptide standards were prepared ranging from 0 ng/ml to 640 ng/ml for the procollagen assay. […] After the incubation 100 μl of stop solution (1 N sulfuric acid) was added to each well and the plate was read using a microplate reader at 450 nm.

Data set [4] relates to elastin synthesis in fibroblasts. Description: Elastin Assay (ELISA, fibroblast culture medium). The following applies: 48 h. It counts as cell-based. Here is the method: as §1, §2
A set of alpha-elastin standards was generated ranging from 0 to 100 ng/ml. […] After the final incubation, the plate was read at 460 nm using a plate reader.
A general note: ELISA stands for enzyme-linked immunosorbent assay.

In data set [5] the test system is hyaluronic acid synthesis in fibroblasts. Description: Hyaluronic Acid Assay (ELISA, fibroblast culture medium). It counts as cell-based. Here is the method:
as §1
Powder materials were prepared by combining 1 gram of the powder material with either 10 ml ultrapure water or 10 ml of DMSO. The mixtures were incubated for one hour at room temperature on a rocking platform to saturate the extraction medium with the test material. The mixture was then centrifuged to separate the saturated extract solution from the undissolved solid materials. The oil based materials were prepared as a stock solution in DMSO and then diluted into the culture media such that the final concentration of DMSO was 1%. A 1% DMSO control was included to account for any effect the solvent might have when evaluating the effect of the oils or DMSO prepared powders.
The fibroblast cell culture was prepared by seeding fibroblasts into the individuals wells of a 24-well plate in 0.5 ml of Fibroblast Growth Media (FGM) and incubated overnight at 37±2° C. and at 5±1% CO2. The media was removed via aspiration to eliminate non-adherent cells and replaced with 0.5 ml of fresh FGM. The medium was changed every 48 to 72 hours until the cells growth reached confluency. Once confluent, the cells were treated for 24 hours with DMEM supplemented with 1.5% FBS to wash out any growth factors present in the normal culture media.
The prepared fibroblast cell cultures were then treated with the prepared test materials at the aforementioned concentrations dissolved in FGM with 1.5% FBS. TGF-B at a concentration of 50 ng/ml was used as a positive control for collagen and elastin, and dibutyrl cAMP at a concentration of 0.1 mM was used as a positive control for hyaluronic acid. Untreated cells received DMEM with 1.5% FBS. The cells were incubated for 48 hours and then either frozen or assayed immediately. Materials were tested in triplicate.
A series of hyaluronic acid standards was prepared ranging from 50 ng/ml to 3,200 ng/ml. Next, 100 μl of each standard (in duplicate) and sample was transferred to a well in an incubation plate. After adding 50 μl of detection solution to each well (except the reagent blank wells) the plate was incubated for 1±0.25 hour at 37±2° C. […] After this final incubation 50 μl of stop solution was added to each well and the absorbance of the plate was measured at 405 nm using a plate reader.

As to `Cc1c(C)c2c(c(C)c1O)CCC(C)(C(=O)O)O2` (stereo not shown) [Trolox, 6-hydroxy-2,5,7,8-tetramethylchroman-2-carboxylic acid], the Viability in data set [1] is 98 ± 5.6. In addition, the “Thymine Dimer Formation” value in data set [2] stood at 296.5 ± 12.2 ng/mL.

Regarding `CCCC(=O)Nc1ncnc2c1ncn2[C@@H]1O[C@@H]2COP(=O)(O)O[C@H]2[C@H]1OC(=O)CCC` [dBcAMP, dibutyrl cAMP], the “Type I C-Peptide” value in data set [3] (0.1 mM) turned out to be 3438 ± 277 ng/mL. In addition, the Elastin in data set [4] (0.1 mM) amounted to 43 ± 16 ng/mL. The “Hyaluronic Acid” value in data set [5] (Table Va, 0.1 mM, 48 h) was found to be 494 ± 51 ng/mL; in data set [5] (Table Vb, 0.1 mM), 547 ± 31 ng/mL.

Turning to TGF-B, the “Type I C-Peptide” value in data set [3] (50 ng/ml) is 5282 ± 178 ng/mL. In data set [4] (50 ng/ml), this compound showed an Elastin of 178 ± 6 ng/mL. The “Hyaluronic Acid” value in data set [5] (Table Va, 50 ng/ml, 48 h) is 260 ± 34 ng/mL; in data set [5] (Table Vb, 50 ng/ml) it was 528 ± 96 ng/mL.
